One may read the IC50 as the concentration needed to halve the response being measured. Higher therefore signals weaker potency.

We go through one compound from ChEMBL document CHEMBL5620374, “Synthesis and bioevaluation of novel stilbene-based derivatives as tubulin/HDAC dual-target inhibitors with potent antitumor activities in vitro and in vivo” (Eur J Med Chem, 2023).

Each structure is given as a SMILES string. Calls of active or inactive are those of the source. The rule behind the calls is not given here. Where only a bound is given, the exact number is not on record here.

In data set [1] the test system is K562. The experiment in a line: Antiproliferative activity against human K562 cells incubated for 72 hrs by MTT assay. The data set is classed as functional, cell-based. The note with it: K562, 72 h.
Data set [2] concerns B16-F10. The experiment in a line: Antiproliferative activity against mouse B16-F10 cells incubated for 72 hrs by MTT assay. The data set is classed as functional, cell-based. The note with it: B16-F10, 72 h. (Formazan colour is commonly taken as a measure of viable cells.)
Data set [3] has as its target Histone deacetylase 3 (Homo sapiens, UniProt O15379). The experiment in a line: Inhibition of HDAC3 derived from human HeLa cell extract using Ac-Leu-Gly-Lys (Ac)-AMC as substrate by fluorescence based assay. The data set is classed as cell-free.
Data set [4] concerns the target T1, Histone deacetylase 7 (Homo sapiens, UniProt Q8WUI4).
T1 sequence (Q8WUI4 whole entry): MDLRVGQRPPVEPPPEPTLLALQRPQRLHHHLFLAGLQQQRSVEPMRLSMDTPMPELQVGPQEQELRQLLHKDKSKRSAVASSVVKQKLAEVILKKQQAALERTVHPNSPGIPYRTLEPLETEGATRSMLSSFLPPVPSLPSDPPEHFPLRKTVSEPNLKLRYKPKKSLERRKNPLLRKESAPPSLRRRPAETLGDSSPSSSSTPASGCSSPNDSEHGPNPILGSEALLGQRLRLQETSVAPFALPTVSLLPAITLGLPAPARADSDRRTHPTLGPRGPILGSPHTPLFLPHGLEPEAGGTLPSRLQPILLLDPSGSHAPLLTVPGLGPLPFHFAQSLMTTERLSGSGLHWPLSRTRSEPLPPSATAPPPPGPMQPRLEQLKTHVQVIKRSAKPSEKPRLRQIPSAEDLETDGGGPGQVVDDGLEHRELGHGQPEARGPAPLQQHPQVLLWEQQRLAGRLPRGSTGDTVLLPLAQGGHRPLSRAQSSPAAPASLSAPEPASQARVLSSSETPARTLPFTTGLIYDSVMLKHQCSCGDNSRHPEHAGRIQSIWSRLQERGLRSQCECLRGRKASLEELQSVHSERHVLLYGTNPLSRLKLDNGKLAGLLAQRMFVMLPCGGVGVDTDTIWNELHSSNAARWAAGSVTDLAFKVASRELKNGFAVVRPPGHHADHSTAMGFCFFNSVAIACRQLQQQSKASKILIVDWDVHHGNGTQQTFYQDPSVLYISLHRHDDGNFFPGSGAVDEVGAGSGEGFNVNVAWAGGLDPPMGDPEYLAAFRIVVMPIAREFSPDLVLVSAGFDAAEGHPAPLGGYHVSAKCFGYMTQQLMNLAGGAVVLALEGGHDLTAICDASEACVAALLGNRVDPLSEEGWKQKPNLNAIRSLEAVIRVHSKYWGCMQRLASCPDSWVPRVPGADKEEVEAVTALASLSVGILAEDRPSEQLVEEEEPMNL
Put plainly: Inhibition of HDAC7 derived from human HeLa cell extract using Ac-Leu-Gly-Lys (Ac)-AMC as substrate by fluorescence based assay. The data set is classed as cell-free.

Data set [5] addresses Tubulin. The experiment in a line: Inhibition of tubulin (unknown origin) polymerization measured for 60 mins by absorbance based assay. The data set is classed as protein-complex assay, Homo sapiens.
Data set [6] concerns the target Tubulin (Homo sapiens) (UniProt P68371+Q9H4B7+P0DPH7+P68366+Q13509+Q71U36+P04350+Q3ZCM7+P07437+P68363+Q9BQE3+Q6PEY2+Q13885+Q9BVA1+Q9BUF5). The experiment in a line: Inhibition of tubulin polymerization in human K562 cells assessed as disruption of microtubule network at 2 to 8 nM by immunofluorescence based analysis. The data set is classed as cell-based. The note with it: dose 2-8 nM.

In data set [7] the test system is K562. The experiment in a line: Induction of cell cycle arrest at G1 phase in human K562 cells at 2 nM incubated for 48 hrs by PI staining based flow cytometry (reference value: 62.08 +/- 0.40 %). The data set is classed as functional. A general note: A flow cytometer gives signals particle by particle.
Data set [8] relates to K562. The experiment in a line: Induction of cell cycle arrest at S phase in human K562 cells at 2 nM incubated for 48 hrs by PI staining based flow cytometry (reference value: 22.56 +/- 0.47 %). The data set is classed as functional.
The test system of data set [9] is K562. Put plainly: Induction of cell cycle arrest at S phase in human K562 cells at 8 nM incubated for 48 hrs by PI staining based flow cytometry (reference value: 22.56 +/- 0.47 %). The data set is classed as functional.
The test system of data set [10] is K562. The experiment in a line: Effect on cell cycle in human K562 cells assessed as decrease in cyclin B1 level incubated for 24 hrs by Western blot analysis. The data set is classed as functional, cell-based. The note with it: dose 2-8 nM.
Data set [11] relates to K562. Put plainly: Induction of apoptosis in human K562 cells assessed as early apoptotic cells at 2 nM incubated for 48 hrs by Annexin V/PI staining based flow cytometry (reference value: 1.55 +/- 0.21 %). The data set is classed as functional.
Data set [12] has as its system K562. The experiment in a line: Induction of apoptosis in human K562 cells assessed as late apoptotic cells at 2 nM incubated for 48 hrs by Annexin V/PI staining based flow cytometry (reference value: 3.37 +/- 0.21 %). The data set is classed as functional.
Data set [13] relates to K562. Put plainly: Induction of apoptosis in human K562 cells assessed as viable cells at 4 nM incubated for 48 hrs by Annexin V/PI staining based flow cytometry (reference value: 92.52 +/- 0.34 %). The data set is classed as functional. The note with it: read-out: Activity.
Data set [14] deals with K562. The experiment in a line: Induction of apoptosis in human K562 cells assessed as necrotic cells at 4 nM incubated for 48 hrs by Annexin V/PI staining based flow cytometry (reference value: 2.56 +/- 0.22 %). The data set is classed as functional.
The test system of data set [15] is K562. The experiment in a line: Induction of apoptosis in human K562 cells assessed as late apoptotic cells at 8 nM incubated for 48 hrs by Annexin V/PI staining based flow cytometry (reference value: 3.37 +/- 0.21 %). The data set is classed as functional.
Data set [16] has as its system K562. The experiment in a line: Induction of apoptosis in human K562 cells assessed as increase in Bax level incubated for 24 hrs by Western blot analysis. The note with it: dose 2-8 nM. The data set is classed as functional, cell-based. (In general: A western blot detects proteins with antibodies after separation by electrophoresis.)
Data set [17] relates to K562. The experiment in a line: Inhibition of mitochondrial membrane potential in human K562 cells assessed as green fluorescence intensity at 2 nM incubated for 48 hrs by JC-1 staining based flow cytometry (reference value: 6.63 +/- 0.27 %). The data set is classed as functional.
The subject of data set [18] is K562. Put plainly: Inhibition of mitochondrial membrane potential in human K562 cells assessed as red fluorescence intensity at 4 nM incubated for 48 hrs by JC-1 staining based flow cytometry (reference value: 93.36 +/- 0.21 %). The data set is classed as functional.
For data set [19], the system named is K562. The experiment in a line: Inhibition of mitochondrial membrane potential in human K562 cells assessed as green fluorescence intensity at 8 nM incubated for 48 hrs by JC-1 staining based flow cytometry (reference value: 6.63 +/- 0.27 %). The data set is classed as functional.
Data set [20] has as its system H22. The experiment in a line: Antitumor activity against mouse H22 cells allografted in ICR mouse assessed as tumor growth inhibition at 20 mg/kg, iv qd for 17 days consecutively relative to control. The note with it: time 17 day, read-out: TGI. The data set is classed as functional.
Data set [21] deals with H22. The experiment in a line: Antitumor activity against mouse H22 cells allografted in ICR mouse assessed as tumor growth inhibition at 10 mg/kg, iv qd for 17 days consecutively relative to control. The note with it: time 17 day, read-out: TGI. The data set is classed as functional.
Data set [22] is described as follows: Toxicity in ICR mouse allografted with mouse H22 cells assessed as toxic sign in liver at 10 to 20 mg/kg, iv qd for 17 days consecutively by H and E staining based analysis. The note with it: in vivo, dose 10-20 mg/kg, time 17 day. The data set is classed as organism-based.
Data set [23] in a line: Toxicity in ICR mouse allografted with mouse H22 cells assessed as toxic sign in spleen at 10 to 20 mg/kg, iv qd for 17 days consecutively by H and E staining based analysis. The data set is classed as organism-based. The note with it: in vivo, dose 10-20 mg/kg, time 17 day.
The test system of data set [24] is MDA-MB-231. The experiment in a line: cells. The note with it: Homo sapiens, MDA-MB-231, 72 h.
Description: Antiproliferative activity against human MDA-MB-231 cells incubated for 72 hrs by MTT assay

Histone deacetylase 3, sequence (O15379 whole entry): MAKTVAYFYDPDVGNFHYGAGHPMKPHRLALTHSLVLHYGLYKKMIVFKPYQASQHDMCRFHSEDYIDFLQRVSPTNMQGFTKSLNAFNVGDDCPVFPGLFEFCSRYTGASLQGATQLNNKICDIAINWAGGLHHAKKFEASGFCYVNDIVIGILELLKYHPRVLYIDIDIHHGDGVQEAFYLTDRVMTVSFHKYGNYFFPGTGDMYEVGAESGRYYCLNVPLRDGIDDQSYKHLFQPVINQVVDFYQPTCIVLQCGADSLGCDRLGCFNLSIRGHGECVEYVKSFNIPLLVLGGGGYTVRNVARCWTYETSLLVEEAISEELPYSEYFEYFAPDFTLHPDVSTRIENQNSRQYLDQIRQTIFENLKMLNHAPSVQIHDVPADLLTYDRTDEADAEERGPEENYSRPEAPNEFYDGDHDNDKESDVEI

Turning to `C=C(c1ccc(OC)c(OC(F)C(=O)NO)c1)c1cc(C)nc2ccccc12` (centres undefined), the IC50 was 3 nM in data set [1]; 5 nM in [2]; 3550 nM in [3]; more than 10000 nM in data set [4]; 3840 nM in data set [5]; 11 nM in data set [24]. In addition, in [6], the inhibition result is “Active”. Besides, the Activity in data set [7] was 56.87%; in data set [8] it was 22.65%; in data set [9] it was 30.41%; in [10], “Dose-Dependent Effect”; in [11] it was 14.52%; in data set [12], 3.94%. In addition, the Activity in data set [14] was 0.17%; in [15], 25.59%; in data set [16], “Dose-Dependent Effect”; in data set [22], “Non-Toxic”; in [23] it was “Non-Toxic”. For the same compound, in [13], the viability at 0.004 µM was 66.6%. Moreover, the Flu intensity in data set [17] was determined as 17.63%; in data set [18], 68.24%; in data set [19], 42.31%. Moreover, the inhibition in vivo at 20 mg/kg in [20] was determined as 73.1%. In addition, in data set [21], the inhibition in vivo at 10 mg/kg is 48%.
